Values belong to the molecule of their own block, whether it stands above or below them. Active and inactive are the calls of the source. No cut-off for these calls is given here.
How the values were obtained:
Cytochrome P450 1A1 = target: T1, Cytochrome P450 1A1 (Homo sapiens, UniProt P04798); experiment: Drug metabolism assessed as recombinant CYP1A1 (unknown origin)-mediated compound intrinsic clearance measured per mg of protein; type: ADME; conditions: recombinant enzyme
T1 sequence (P04798 whole entry): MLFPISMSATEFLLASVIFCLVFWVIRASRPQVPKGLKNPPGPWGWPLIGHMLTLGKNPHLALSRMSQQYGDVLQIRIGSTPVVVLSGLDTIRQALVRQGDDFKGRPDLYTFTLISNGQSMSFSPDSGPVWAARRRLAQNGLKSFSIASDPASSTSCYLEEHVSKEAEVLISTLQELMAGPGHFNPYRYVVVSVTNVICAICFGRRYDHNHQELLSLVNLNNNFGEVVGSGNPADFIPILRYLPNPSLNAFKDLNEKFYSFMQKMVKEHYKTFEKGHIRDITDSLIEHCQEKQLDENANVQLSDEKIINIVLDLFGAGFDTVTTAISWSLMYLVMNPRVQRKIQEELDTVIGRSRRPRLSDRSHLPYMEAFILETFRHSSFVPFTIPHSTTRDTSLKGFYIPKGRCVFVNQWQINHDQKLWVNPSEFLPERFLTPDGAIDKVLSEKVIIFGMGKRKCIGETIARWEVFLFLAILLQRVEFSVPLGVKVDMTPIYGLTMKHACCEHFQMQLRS

Rattus norvegicus = species: Rattus norvegicus; experiment: Terminal half life in rat; type: ADME, organism-based; conditions: in vivo
HeLa [1] = experiment: Cytotoxicity against human HeLa cells transfected with BRCA1 shRNA assessed as reduction of cell viability after 5 to 7 days by CellTiter-Blue assay; type: functional
[2] = Intrinsic clearance in human liver microsomes measured per mg of protein
[3] = Volume of distribution at steady state in rat; conditions: in vivo
[4] = Oral bioavailability in dog; conditions: in vivo
[5] = Volume of distribution at steady state in dog; conditions: in vivo
[6] = Terminal half life in dog; conditions: in vivo
[7] = Drug metabolism in iv dosed bile cannulated dog assessed as parent compound recovery
[8] = Drug metabolism in iv dosed bile cannulated rat assessed as parent compound recovery
[9] = Cytotoxicity against human SUM1315MO2 cells carrying BRCA1 mutant assessed as inhibition of cell proliferation after 12 days by CellTiter-Blue assay; conditions: SUM1315MO2, 288 h
[10] = Plasma concentration in CD-1 mouse at 50 mg/kg, po after 24 hrs
[11] = Fraction unbound in mouse plasma
[12] = Fraction unbound in human plasma
[13] = Antitumor activity against BRCA2-deficient human Capan1 cells xenografted in immunocompromised mouse assessed as tumor growth inhibition at 80 mg/kg, po qd for 2 to 4 weeks; conditions: CAPAN-1, po, read-out: TGI
Plasma [14] = experiment: Plasma trough concentration in human at 300 mg/day; conditions: read-out: Cmin
Plasma [15] = experiment: Plasma trough concentration in human at 40 mg/day; conditions: read-out: Cmin
[16] = target: T2, PARP 1, 2 and 3 (Homo sapiens) (UniProt P09874+Q9Y6F1+Q9UGN5); conditions: HeLa
Description: Inhibition of PARP in human HeLa cells assessed as inhibition of hydrogen peroxide-induced PARylation by cell-based assay

[17] = target: T2, PARP 1, 2 and 3 (Homo sapiens); conditions: A2780
Description: Inhibition of PARP in human A2780 cells assessed as inhibition of hydrogen peroxide-induced PARylation by cell-based assay

[18] = target: T2, PARP 1, 2 and 3 (Homo sapiens); conditions: CAPAN-1
Description: Inhibition of PARP in BRCA2-deficient human CAPAN-1 cells assessed as inhibition of hydrogen peroxide-induced PARylation by cell-based assay

MDA-MB-436 [19] = conditions: Homo sapiens, 50 mg/kg
Description: Antitumor activity against human MDA-MB-436 cells harboring BRCA1 mutant xenografted in immunocompromised mouse assessed as tumor growth inhibition at 50 mg/kg, po administered daily

MDA-MB-436 [20] = conditions: Homo sapiens, 80 mg/kg
Description: Antitumor activity against human MDA-MB-436 cells harboring BRCA1 mutant xenografted in immunocompromised mouse assessed as tumor growth inhibition at 80 mg/kg, po qd for 1 to 2 weeks

[21] = target: T2, PARP 1, 2 and 3 (Homo sapiens); conditions: MDA-MB-436, 50 to 100 mg/kg
Description: Inhibition of PARP activity in tumor of immunocompromised mouse xenografted with human MDA-MB-436 cells harboring BRCA1 mutant assessed as incorporation of [3H]NAD in PAR chains in response to nicked DNA at 50 to 100 mg/kg, po measured after 24 hrs

[22] = target: T2, PARP 1, 2 and 3 (Homo sapiens); conditions: CAPAN-1, 50 to 100 mg/kg
Description: Inhibition of PARP activity in tumor of immunocompromised mouse xenografted with BRCA2-deficient human Capan1 cells assessed as incorporation of [3H]NAD in PAR chains in response to nicked DNA at 50 to 100 mg/kg, po measured after 24 hrs

HeLa [23] = experiment: cells; conditions: Homo sapiens
Description: Cytotoxicity against wild type human HeLa cells assessed as inhibition of cell proliferation after 5 to 7 days by CellTiter-Blue assay

A549 [24] = experiment: cells; conditions: Homo sapiens
Description: Cytotoxicity against wild type human A549 cells assessed as inhibition of cell proliferation after 5 to 7 days by CellTiter-Blue assay

A549 [25] = experiment: cells; conditions: Homo sapiens; remark: listed apart in the source
Description: Cytotoxicity against human A549 cells transfected with BRCA2 shRNA assessed as inhibition of cell proliferation after 5 to 7 days by CellTiter-Blue assay

cells [26] = conditions: Homo sapiens, UWB1289
Description: Cytotoxicity against human UWB1.289 cells carrying BRCA1 mutant assessed as inhibition of cell proliferation after 5 to 7 days by CellTiter-Blue assay

cells [27] = conditions: Homo sapiens, SUM149PT
Description: Cytotoxicity against human SUM149PT cells carrying BRCA1 mutant assessed as inhibition of cell proliferation after 5 to 7 days by CellTiter-Blue assay

DoTc2-4510 = experiment: cells; conditions: Homo sapiens
Description: Cytotoxicity against human DoTc2-4510 cells carrying BRCA2 mutant assessed as inhibition of cell proliferation after 5 to 7 days by CellTiter-Blue assay

in vivo = conditions: dog, plasma
in vitro [28] = conditions: human, UWB1.289 cells expressing BRCA1
Description: Cytotoxicity against human UWB1.289 cells expressing BRCA1 assessed as inhibition of cell proliferation after 5 to 7 days by CellTiter-Blue assay

in vitro [29] = conditions: human, BT20 cells
Description: Cytotoxicity against human BT20 cells assessed as inhibition of cell proliferation after 5 to 7 days by CellTiter-Blue assay

[30] = Total plasma clearance in iv dosed rat; type: ADME, organism-based
HeLa [31] = experiment: Selectivity for BRCA1 shRNA-transfected human HeLa cells over wild type human HeLa cells
[32] = Drug metabolism in rat lung microsomes assessed as compound turnover; type: ADME
[33] = Drug metabolism in rat kidney microsomes assessed as compound turnover; type: ADME
[34] = Plasma clearance in rat; type: ADME
[35] = target: Poly [ADP-ribose] polymerase 1 (Homo sapiens, UniProt P09874)
Sequence of Poly [ADP-ribose] polymerase 1 (P09874 whole entry): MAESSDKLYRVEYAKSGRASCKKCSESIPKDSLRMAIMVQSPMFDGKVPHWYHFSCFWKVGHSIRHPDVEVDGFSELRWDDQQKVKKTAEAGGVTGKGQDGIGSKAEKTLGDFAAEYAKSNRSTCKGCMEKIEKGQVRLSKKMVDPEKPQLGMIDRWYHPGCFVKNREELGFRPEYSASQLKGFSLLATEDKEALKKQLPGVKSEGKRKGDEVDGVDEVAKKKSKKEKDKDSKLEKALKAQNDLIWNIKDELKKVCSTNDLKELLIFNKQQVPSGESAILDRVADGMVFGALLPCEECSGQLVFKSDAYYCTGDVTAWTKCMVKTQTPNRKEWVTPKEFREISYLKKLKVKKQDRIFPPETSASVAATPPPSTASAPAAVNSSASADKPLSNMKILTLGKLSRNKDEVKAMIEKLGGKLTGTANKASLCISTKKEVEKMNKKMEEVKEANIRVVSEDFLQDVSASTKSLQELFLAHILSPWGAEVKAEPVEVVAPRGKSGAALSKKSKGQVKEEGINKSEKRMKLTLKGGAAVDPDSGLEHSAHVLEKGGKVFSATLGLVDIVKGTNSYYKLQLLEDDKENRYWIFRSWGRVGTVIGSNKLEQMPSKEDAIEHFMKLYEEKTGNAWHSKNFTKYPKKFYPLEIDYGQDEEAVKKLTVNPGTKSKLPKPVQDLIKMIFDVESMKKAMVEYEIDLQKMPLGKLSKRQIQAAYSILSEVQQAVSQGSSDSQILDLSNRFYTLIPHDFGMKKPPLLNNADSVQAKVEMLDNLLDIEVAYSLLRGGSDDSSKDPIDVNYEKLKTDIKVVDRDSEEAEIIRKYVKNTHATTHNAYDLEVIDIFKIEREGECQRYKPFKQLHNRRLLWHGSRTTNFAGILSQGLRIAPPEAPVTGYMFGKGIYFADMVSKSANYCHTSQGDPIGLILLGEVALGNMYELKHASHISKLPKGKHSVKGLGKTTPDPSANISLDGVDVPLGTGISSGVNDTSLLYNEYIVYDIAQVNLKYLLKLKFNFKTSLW
Description: Inhibition of PARP1 (unknown origin)

CL (Cytochrome P450 1A1): 6 µL/min
SMILES: CNCc1ccc(-n2cc3cccc(C(N)=O)c3n2)cc1

beta t1/2 (Rattus norvegicus): 3.4 h
CL (Cytochrome P450 1A1): 16 µL/min
microsomal CLint [2]: 3 µL/min/mg
Vd [3]: 6.9 L/kg
bioavailability [4]: 57%
Vd [5]: 12.3 L/kg
half-life [6]: 5.7 h
dose excreted [7]: < 5%
dose excreted [8]: 45%
concentration at 24 h [10]: 100 nM
fraction unbound [11]: 0.26
fraction unbound [12]: 0.16
concentration (Plasma [14]): > 2000 nM
concentration (Plasma [15]): 288 nM
IC90 [16]: 46 nM
IC90 [17]: 52 nM
IC90 [18]: 50 nM
inhibition [21]: > 90%
inhibition [22]: > 90%
clearance (in vivo): 31 mL/min/kg
SMILES: NC(=O)c1cccc2cn(-c3ccc([C@@H]4CCCNC4)cc3)nc12 [NIRAPARIB]
CC50 (HeLa [1]): 34 nM
CC50 [9]: 20 nM
inhibition in vivo at 80 mg/kg [13]: 60%
inhibition (MDA-MB-436 [19]): Active
TGI (MDA-MB-436 [20]): Active
CC50 (HeLa [23]): 852 nM
CC50 (A549 [24]): 1760 nM
CC50 (A549 [25]): 11 nM
CC50 (cells [26]): 56 nM
CC50 (cells [27]): 24 nM
CC50 (DoTc2-4510): 23 nM
CC50 (in vitro [28]): 975 nM
CC50 (in vitro [29]): 2200 nM

clearance [30]: 30 mL/min/kg
CL (Cytochrome P450 1A1): 0.7 µL/min
SMILES: NC(=O)c1cccc2cn(-c3ccc4c(c3)CCNC4)nc12

Drug metabolism [32]: metabolite_detected
Drug metabolism [33]: metabolite_detected
CL (Cytochrome P450 1A1): 8.7 µL/min
SMILES: CN(C)Cc1ccc(-n2cc3cccc(C(N)=O)c3n2)cc1
Selectivity ratio (HeLa [31]): >10

CL (Cytochrome P450 1A1): 7 µL/min
microsomal CLint [2]: 4 µL/min/mg
SMILES: NC(=O)c1cccc2cn(-c3ccc([C@H]4CCCNC4)cc3)nc12

CL (Cytochrome P450 1A1): 22 µL/min
SMILES: NC(=O)c1cccc2cn(-c3ccc(C4CCCN4)cc3)nc12 (stereo not drawn)

clearance [34]: 30 mL/min/kg
SMILES: NC(=O)c1cccc2cn(-c3ccccc3)nc12

clearance [30]: 30 mL/min/kg
CL (Cytochrome P450 1A1): 0.4 µL/min
SMILES: CNC(C)(C)c1ccc(-n2cc3cccc(C(N)=O)c3n2)cc1

CL (Cytochrome P450 1A1): 11 µL/min
SMILES: NC(=O)c1cccc2cn(-c3ccc(C4CCCNC4)cc3)nc12 (stereo not drawn)

IC50 [35]: 3.8 nM
SMILES: O=C(O)c1cccc2cn(-c3ccc([C@@H]4CCCNC4)cc3)nc12
